{"source": "patent US6548241B1", "about": "“Storage solution containing photosensitizer for inactivation of biological contaminants” (Gambro, Inc., priority 2000, dated 2003)", "key": {"[1]": {"assay_type": "physicochemical", "details": "for solubility thermodynamic at 1 h: thermodynamic from solid", "description": "The mixture was agitated at room temperature for one hour and vortex mixed to ensure complete dissolution of the suspended material. […] This suspension was then centrifuged to remove undissolved material. The supernatant from this preparation was removed and analyzed using a spectrophotometer. The absorbance values of the solution were determined at 447 nm and 373 nm. From the extinction coefficients that were determined previously, it was possible to estimate the concentration of the saturated solution Solubility in ACD-A Anticoagulant The same procedure described above was repeated using ACD-A Anticoagulant."}, "[2]": {"assay": "Photodecomposition in ACD-A upon exposure to UV light (365 nm)", "details": "for % of Initial, 373 nm / % of Initial, 447 nm: 63 μg/mL in ACD-A, UV 365 nm"}, "Staphylococcus aureus": {"system": "Staphylococcus aureus", "assay": "Log inactivation of S. aureus in platelet concentrate, irradiation at 80 J/cm^2"}, "[3]": {"system": "Staphylococcus epidermidis", "assay": "Log inactivation of S. epidermidis in platelet concentrate, irradiation at 80 J/cm^2"}, "[4]": {"system": "herpes simplex virus type II (HSV-II)", "assay": "Inactivation of HSV-II in platelet concentrates at varying photosensitizer concentrations", "details": "platelet concentrate, 80 J/cm^2, all three trials"}, "HSV-II": {"system": "HSV-II", "assay": "Inactivation of HSV-II in platelet concentrate and PC:media with ascorbate (log virus titre)", "details": "14 μM + 6 mM ascorbate"}, "Listeria monocytogenes": {"system": "Listeria monocytogenes", "assay": "Log inactivation of Listeria monocytogenes in platelet concentrate, cuvette apparatus", "assay_type": "cell-based", "experimental": "Mixtures of platelet concentrates and platelet additive solutions are referred to herein as in “media.” Platelet concentrate without additive solution is referred to herein as in “plasma.” Both were spiked with Listeria monocytogenes. Vitamin K5 was then added to each in the amount of 300 μg/mL […]. Each was then exposed to UV, visible or room light in the cuvette apparatus of FIG. 5 with the results shown in Table 3."}}, "note": "Like-named read-outs stand apart in the source and are kept apart here.", "data": [{"smiles": "Cc1cc2nc3c(=O)[nH]c(=O)nc-3n(C[C@H](O)[C@H](O)[C@H](O)CO)c2cc1C", "note": "[7,8-dimethyl-10-ribityl isoalloxazine]", "values": [{"measurement": "solubility thermodynamic at 1 h", "setting": "[1]; ACD-A Anticoagulant, aqueous buffer, ACD-A Anticoagulant, absorbance at 373 nm, read-out: Concentration (373) of saturated solution", "result": 63, "unit": "µg/mL"}, {"measurement": "solubility thermodynamic at 1 h", "setting": "[1]; ACD-A Anticoagulant, aqueous buffer, ACD-A Anticoagulant, absorbance at 447 nm, read-out: Concentration (447) of saturated solution", "result": 60.3, "unit": "µg/mL"}, {"measurement": "Concentration (373) of saturated solution", "setting": "[1]; ACD-A Anticoagulant, absorbance at 373 nm", "result": 166, "unit": "µM"}, {"measurement": "Concentration (447) of saturated solution", "setting": "[1]; ACD-A Anticoagulant, absorbance at 447 nm", "result": 160, "unit": "µM"}, {"measurement": "solubility thermodynamic at 1 h", "setting": "[1]; Isolyte S media, pH 7.4, saline or isotonic, Isolyte S, pH 7.4 media, room temperature, absorbance at 373 nm, read-out: Concentration (373) of saturated solution", "result": 42, "unit": "µg/mL"}, {"measurement": "solubility thermodynamic at 1 h", "setting": "[1]; Isolyte S media, pH 7.4, saline or isotonic, Isolyte S, pH 7.4 media, room temperature, absorbance at 447 nm, read-out: Concentration (447) of saturated solution", "result": 40.9, "unit": "µg/mL"}, {"measurement": "Concentration (373) of saturated solution", "setting": "[1]; Isolyte S, pH 7.4 media, room temperature, absorbance at 373 nm", "result": 110, "unit": "µM"}, {"measurement": "Concentration (447) of saturated solution", "setting": "[1]; Isolyte S, pH 7.4 media, room temperature, absorbance at 447 nm", "result": 109, "unit": "µM"}, {"measurement": "% of Initial, 373 nm", "setting": "[2]; Irradiation Time 0", "result": 100, "unit": "%"}, {"measurement": "% of Initial, 447 nm", "setting": "[2]; Irradiation Time 0", "result": 100, "unit": "%"}, {"measurement": "% of Initial, 373 nm", "setting": "[2]; Irradiation Time 5", "result": 87.3, "unit": "%"}, {"measurement": "% of Initial, 447 nm", "setting": "[2]; Irradiation Time 5", "result": 61.6, "unit": "%"}, {"measurement": "% of Initial, 373 nm", "setting": "[2]; Irradiation Time 10", "result": 90.5, "unit": "%"}, {"measurement": "% of Initial, 447 nm", "setting": "[2]; Irradiation Time 10", "result": 76.6, "unit": "%"}, {"measurement": "% of Initial, 373 nm", "setting": "[2]; Irradiation Time 15", "result": 100, "unit": "%"}, {"measurement": "% of Initial, 447 nm", "setting": "[2]; Irradiation Time 15", "result": 70, "unit": "%"}, {"measurement": "decomposition of the reagent (absorption profile at 373 nm)", "setting": "[2]; over the entire irradiation period", "result": "no significant decomposition"}, {"measurement": "Log Inactivation (cfu/mL)", "setting": "Staphylococcus aureus; 10 μM in platelet concentrate", "result": 1.9, "unit": "Logs"}, {"measurement": "Log Inactivation (cfu/mL)", "setting": "[3]; 10 μM in platelet concentrate", "result": 4.1, "unit": "Logs"}, {"measurement": "inactivation of HSV-II", "setting": "[4]", "result": "complete inactivation"}, {"measurement": "log virus titre", "setting": "HSV-II; 30:70 PC:Media (PASIII), UV+VIS 0 J/cm^2, 0.0 Minutes", "result": 5.6}, {"measurement": "log virus titre", "setting": "HSV-II; 30:70 PC:Media, UV+VIS 5 J/cm^2, 1.5 Minutes", "result": 2.5}, {"measurement": "log virus titre", "setting": "HSV-II; 30:70 PC:Media, UV+VIS 10 J/cm^2, 3.0 Minutes", "result": 2.5}, {"measurement": "log virus titre", "setting": "HSV-II; 30:70 PC:Media, UV+VIS 15 J/cm^2, 4.5 Minutes", "result": 2.3}, {"measurement": "log virus titre", "setting": "HSV-II; 30:70 PC:Media, UV+VIS 20 J/cm^2, 6.0 Minutes", "result": 1.8}, {"measurement": "log virus titre", "setting": "HSV-II; 30:70 PC:Media, UV+VIS 30 J/cm^2, 9.0 Minutes", "result": 1.6}, {"measurement": "log virus titre", "setting": "HSV-II; 90:10 PC:Media, UV+VIS 0 J/cm^2", "result": 5.6}, {"measurement": "log virus titre", "setting": "HSV-II; 90:10 PC:Media, UV+VIS 40 J/cm^2", "result": 3.3}]}, {"smiles": "Cc1cc2nc3[nH]c(=O)[nH]c(=O)c3nc2cc1C", "note": "[7-8-dimethyl alloxazine]", "values": [{"measurement": "Log Inactivation (cfu/mL)", "setting": "Staphylococcus aureus; 7 μM in platelet concentrate", "result": 1.6, "unit": "Logs"}, {"measurement": "Log Inactivation (cfu/mL)", "setting": "[3]; 7 μM in platelet concentrate", "result": 2.9, "unit": "Logs"}]}, {"smiles": "Cc1cc(N)c2ccccc2c1O", "note": "[K5, Vitamin K5]", "values": [{"measurement": "Log Inactivation (cfu/mL)", "setting": "Listeria monocytogenes; K5 300 μg/mL in Media (20:80 platelet concentrate:Isolyte S), UV 365 nm, 40 J/cm^2", "result": 4.2, "unit": "Logs"}, {"measurement": "Log Inactivation (cfu/mL)", "setting": "Listeria monocytogenes; K5 300 μg/mL in Media, Room Light", "result": 0, "unit": "Logs"}, {"measurement": "Log Inactivation (cfu/mL)", "setting": "Listeria monocytogenes; K5 300 μg/mL in Media, VIS 419 nm, 40 J/cm^2", "result": 4.2, "unit": "Logs"}, {"measurement": "Log Inactivation (cfu/mL)", "setting": "Listeria monocytogenes; K5 300 μg/mL in Plasma (platelet concentrate without additive solution), UV 365 nm, 40 J/cm^2", "result": 0.1, "unit": "Logs"}, {"measurement": "Log Inactivation (cfu/mL)", "setting": "Listeria monocytogenes; K5 300 μg/mL in Plasma, Room Light", "result": 0, "unit": "Logs"}, {"measurement": "Log Inactivation (cfu/mL)", "setting": "Listeria monocytogenes; K5 300 μg/mL in Plasma, VIS 419 nm, 40 J/cm^2", "result": 0.1, "unit": "Logs"}]}, {"smiles": "Cc1cc2nc3c(=O)[nH]c(=O)nc-3n(C[C@H](O)[C@H](O)[C@H](O)COP(=O)(O)O)c2cc1C", "note": "[alloxazine mononucleotide]", "values": [{"measurement": "Log Inactivation (cfu/mL)", "setting": "Staphylococcus aureus; 10 μM in platelet concentrate", "result": 1.6, "unit": "Logs"}, {"measurement": "Log Inactivation (cfu/mL)", "setting": "[3]; 10 μM in platelet concentrate", "result": 5.6, "unit": "Logs"}]}]}
